# Results from US20100068782A1, “METHOD FOR THE SURFACE TREATMENT OF SOLID SUBSTRATES” (UNIVERSIDAD DEL (PIAS) PAIS VASCO, priority 2006, published 2010).
# Non-standard residues stand in square brackets, D forms with d. Residues, ends and D or L forms follow the SMILES beside them. *: point of attachment. Fmoc = O=C(OCC1c2ccccc2-c2ccccc21)*; Cha = N[C@@H](CC1CCCCC1)C(=O)O; AMC = Cc1cc(=O)oc2cc(N*)ccc12
# System: galanin receptors
# Assay: autoradiography of [35S]GTPγS binding in tissue arrays of isolated cell membranes with ligands of galanin receptors
# Assay type: biochemical, Sprague Dawley rats
# Conditions: galnon + antagonist; tissue arrays (FIG. 7)
# Text: Five male Sprague Dawley rats (250-275 g) were anesthetized and sacrificed according to the guide approved by the Ethics Committee of the Faculty of Medicine of the Basque Country University following internationally accepted guidelines (86/609/EEC). Organs and tissues which would be used in the experiment (pancreas, stomach, small intestine, spleen, heart, lung, liver, testicle, deferent duct, kidney, suprarenal glands, spinal cord and brain: frontal cortex, striatum, brain stem, pituitary, olfactory nuclei, hippocampus, hypothalamus, thalamus, colliculus and cerebellum) were subsequently extracted. These samples were stored at −70° C. until performing the experiment.
# The tissue samples (1 g) were homogenized using a Teflon-glass homogenizer (10 taps at 1,500 rpm) in 30 volumes of homogenization buffer 1 mM [ethylene glycol-bis(β-aminoethyl)-N,N,N′,N′-tetraacetic acid (EGTA), 3 mM MgCl2, 1 mM dithiothreitol (DTT) and 50 mM Tris-HCl, pH 7.4] supplemented with […] sucrose. The crude homogenate was centrifuged at 3,000×g and at 4° C. for 5 minutes and the resulting supernatant was again centrifuged at 40,000×g for 10 minutes (4° C.). The pellet was washed in 20 volumes of homogenization buffer and re-centrifuged in the same conditions. Aliquots were prepared and stored at −70° C. The protein content was determined according to the Bradford method [Bradford M M., Anal Biochem 1976; 72:248-54] using bovine serum albumin (BSA) as standard.
# Aliquots of 1 mg/ml of each tissue were taken and with this suspension, 1 μl microspots were made on glass supports (microscope slides) subjected to the following treatments: • a) Treated with orthophosphoric acid (PA) according to the process of Example 1; • b) Gelatinized (G); • c) Coated with gamma-aminopropyltriethoxysilane (APTS); • d) Treated with nitric acid and gelatinized (NA); • e) Treated with nitric acid and subsequently with lignin (NA+lignin); • f) Treated with nitric acid and subsequently with pectin (NA+pectin); or • g) Treated with nitric acid and subsequently with Kuzu (NA+Kuzu).
# The microscope slides with the tissue sections were left drying for 15 minutes at room temperature. Subsequently the tissue sections were preincubated in assay buffer at pH 7.4 [50 mM Tris-HCl, 3 mM MgCl2, 0.2 mM EGTA, 100 mM NaCl, 3 mU/ml adenosine deaminase] for 20 minutes at room temperature to eliminate, as much as possible, the presence of endogenous neurotransmitters; after that, the sections were again preincubated in the assay buffer supplemented with guanosine diphosphate (GDP) (2 mM) and DTT (1 mM).
# The microscope slides were then incubated for 2 hours at 30° C. in the previous assay buffer, to which the following substances were added depending on the different conditions of the experiment:
# After this time, 2 15-minute washings were performed in 50 mM Tris-HCl buffer, pH 7.4 at 4° C. After the second washing, the sections were immersed in distilled water at 4° C. to eliminate the salts and the microscope slides were dried by means of the application of a cold airflow.
# Subsequently, the microscope slides with the corresponding sections were exposed to a radiosensitive film (Kodak Biomax MR) which was developed similarly to photographic film. The labeling was quantified transforming the different gray densities into nCi/g tissue equivalent. To that end, each film was exposed together with previously calibrated commercial standards (Amersham). The quantification was performed with microscopic anatomical resolution in a computerized image analysis system, using NIH-image software.
# The substances added in the different assays were the following: • (A) To study the binding of [^35S]GTPγS in the absence (basal) and in the presence of agonists, the following agonists were used: • (i) the cannabinoid agonist WIN 55212-2 [(R)-(+)-[2,3-dihydro-5-methyl-3-[(4-morpholinyl)methyl]pyrrolo[1,2,3-d,e]-1.4-benzoxazin-6-yl]-(1-naphthalenyl)methanone mono-methanesulphonate] […]
row,Molecule,antagonism of the action of galnon on [35S]GTPγS binding
1,galanin-(1-13)-Pro-Pro-Ala-Leu-Ala-Leu-Ala-Leu-Ala amide [M40],antagonized
2,"galanin-(1-13)-bradykinin,-(2,9)amide [M35]",antagonized

# Same assay, conditions: some tissues (e.g., pituitary); membranes on slides treated with orthophosphoric acid; vs basal
row,Molecule,binding of [35S]GTPγS in the presence of ligand
1,Cc1cc(=O)oc2cc(NC(=O)[C@H](CCCCN)NC(=O)[C@H](CC3CCCCC3)NC(=O)OCC3c4ccccc4-c4ccccc43)ccc12 [galnon] (Fmoc-[Cha]-Lys-{AMC}),increases
2,gal(2-11),increases
3,galanin-(1-13)-Pro-Pro-Ala-Leu-Ala-Leu-Ala-Leu-Ala amide [M40],increases
4,"galanin-(1-13)-bradykinin,-(2,9)amide [M35]",increases
5,galanin-(1-13)-substance P-5-11 amide [M15],increases
